According to US20250000940A1, “USE OF FRUCTUS LYCII GLUCOPEPTIDE” (NINGXIA QITAI TECHNOLOGY CO., LTD., priority 2021, published 2025):

Legend:
Type in all cases: in vivo, Kunming mice
MPTP model mice [1] = assay: Pole-climbing test in MPTP model mice; conditions: intragastric for 2 weeks after modeling, 30 mg/kg (rasagiline 1 mg/kg), vs. MPTP group, n=6, FIG. 2
Procedure: Administration method: the mice were randomly divided into 6 groups with 6 mice in each group, i.e., the control group, the MPTP model group (intraperitoneal injection of MPTP, 30 mg/kg, established after five days of administration and two days of rest), the MPTP+Fructus lycii extract (water extraction) group (administration after modeling, 30 mg/kg, intragastric administration for two weeks), the MPTP+Fructus lycii polysaccharide group (administration after modeling, 30 mg/kg, intragastric administration for two weeks), the MPTP+Fructus lycii glucopeptide group (administration after modeling, 30 mg/kg, intragastric administration for 2 weeks), the MPTP+rasagiline group (administration after modeling, 1 mg/kg, intragastric administration for 2 weeks). Instruction: the pole-climbing test is a behavioral test to record the time difference of mice on the pole so as to detect the limb movement coordination of mice. The whole experiment was completed in a quiet and dark environment. The pole was composed of an iron frame with a diameter of 1 cm and a height of 60 cm and a small ball with a diameter of 1.5 cm fixed on its top. […] The time required for the mice to climb to the bottom from the beginning was recorded. If the time exceeded 1 minute, it was recorded as 1 minute. Each mouse was tested for 5 rounds each time, and the results were expressed as the average values.

MPTP model mice [2] = assay: CatWalk gait analysis in MPTP model mice; conditions: intragastric for 2 weeks after modeling, 30 mg/kg (rasagiline 1 mg/kg), vs. MPTP group, n=6, FIG. 4-7
Description: Instruction: CatWalk gait analysis is a system for analyzing the gait of rodents, including the balance maintenance ability, the use of limbs and the stability analysis of movement state and gait. The main accessories include built-in red LED light panel and green fluorescent glass panel, high-frequency camera under the glass panel, image transmission system and computer software and hardware. Before inspection, the camera height will be adjusted to 60 cm, the effective length and width of the runway will be delimited in the software, and the gain of the camera will be set to 28.12 dB. The process of each mouse passing through the glass plate smoothly was recorded at room temperature, and the longest time was set to 10 s, that is, the data was valid if the mouse passed through the set distance within 10 s. The principle of recording is that the paw prints of mice are illuminated by the fluorescent reflection of the fluorescent lamp in the glass panel, captured by the camera below and transmitted to the computer, and the recorded video data are statistically analyzed by the software of the system. According to the location of paw print, the pressure of paw on the glass panel, the distance between different paw prints, the velocity of mouse gait and the regularity of gait, the gait of mice was qualitatively and quantitatively analyzed. […]

MPTP model mice [3] = assay: Rotarod test in MPTP model mice; conditions: intragastric for 2 weeks after modeling, 30 mg/kg (rasagiline 1 mg/kg), vs. MPTP group, n=6, FIG. 3
Procedure: Instruction: rotarod test was used to detect the motor coordination ability of mice by recording the time of the mice on the cylindrical rotarod using the rotarod fatigue apparatus. The test was conducted in a quiet and dark environment. The rotarod fatigue apparatus can accommodate five mice at a time for the test. Each mouse has a separate track, with a connected computer software for recording the time when the mouse falls. When the mouse rotates passively with the rotarod for more than two consecutive circles, the timing should also be stopped. Before restraint stress, the mice were trained for a week in advance to adapt, and each mouse was trained for three rounds every time. After restraint stress, the mice were detected once a week, and the parameter was set at a speed ramp from 5 r/min to 30 r/min at a constant rate within 5 min. The time of the mice on the rotarod within 5 min was recorded, and the time exceeding 5 min was recorded as 5 min. Each mouse was detected for 3 rounds each time, and the average value was calculated. The test interval of each group of mice was at least 30 min. Before each change of the mice, the apparatus was cleaned with 75% ethanol to remove the odor before the next group of test.

C#CCN[C@@H]1CCc2ccccc21 [rasagiline, Rasagiline]
pole-climbing time (time to climb from top to bottom of the pole) (MPTP model mice [1]): significantly shorten the pole-climbing time | gait behavior (average speed, maximum variation, cadence, number of steps) (MPTP model mice [2]): significantly restore the gait behavior disorder | on-rod time (anti-fatigue time on the rotarod) (MPTP model mice [3]): significantly restore the on-rod time
